# Data from patent publication US20230025880A1, “FUSED TRICYCLIC COMPOUND AND MEDICINAL USE THEREOF” (JAPAN TOBACCO INC., priority 2020, published 2023).
# Target: T1, human PDHK2 (hPDHK2) (Homo sapiens, UniProt Q15119)
# T1 construct: made in house; host or cells: Escherichia coli BL21(DE3), pET-17b vector
# Test: Inhibitory action of PDHK2 activity (residual PDH activity, NADH absorbance at 340 nm)
# Type: biochemical
# Details: PDH/hPDHK2 complex, PDHK reaction 45 min at room temperature
# Procedure: In the case of human PDHK2 (hPDHK2, NCBI Reference Database Accession number NM_002611.4), modified hPDHK2 cDNA wherein FLAG-Tag sequence was added to the N terminus of hPDHK2 cDNA clone (pReceiver-M01/PDK2-GeneCopoeia) as the base was prepared by polymerase chain reaction (PCR) and ligated to the NdeI/EcoRI site of pET-17b vector (Merck KGaA, Catalog Number 69663-3). The recombinant construct was transformed into Escherichia coli DH5α. The recombinant clones were identified, and plasmid DNA was isolated and subjected to the DNA sequence analysis. One clone which had the expected nucleic acid sequence was selected for expression work.
# For expression of hPDHK2 activity, Escherichia coli strain BL21(DE3) cells (Merck KGaA, Catalog Number 69450-4) were transformed with the pET17b vector containing modified hPDHK2 cDNA. The Escherichia coli were grown to an optical density 0.6 ([…]) at 30° C. Protein expression was induced by the addition of 500 μmol/L isopropyl-β-thiogalactopyranoside. The Escherichia coli were cultured at 20° C. for 17-18 hr and harvested by centrifugation. The harvested Escherichia coli was resuspended in a suspension buffer (20 mmol/L HEPES-NaOH, 500 mmol/L sodium chloride, 1% ethylene glycol, 0.1% Pluronic (registered trademark) F-68 (pH 8.0), cOmplete, EDTA-free (Roche) (pH 8.0)), and disrupted by a microfluidizer M-110H (MIZUHO INDUSTRIAL CO., LTD.). The precipitate was removed by centrifugation and the supernatant was added to DDDDK-tagged Protein PURIFICATION GEL (MEDICAL & BIOLOGICAL LABORATORIES CO., LTD., Code No. 3329). DDDDK-tagged Protein PURIFICATION GEL was washed with a washing buffer (20 mmol/L HEPES-NaOH, 500 mmol/L sodium chloride, 1% ethylene glycol, 0.1% Pluronic F-68 (pH 8.0)) and the bound protein was eluted with elution buffer 1 (20 mmol/L HEPES-NaOH, 100 μg/mL peptide (amino acid sequence DYKDDDDK) (SEQ ID NO: 1), 500 mmol/L sodium chloride, 1% ethylene glycol, 0.1% Pluronic F-68 (pH 8.0)). The eluted fractions containing FLAG-Tagged protein were pooled, concentrated by an ultrafiltration method, added to a gel filtration column (HiLoad 26/60 Superdex 200 (GE Healthcare Life Sciences, Code No. 17-1070-01)), and eluted with elution buffer 2 (20 mmol/L HEPES-NaOH, 150 mmol/L sodium chloride, 0.5 mmol/L ethylenediaminetetraacetic acid (EDTA), 1% ethylene glycol, 0.1% Pluronic F-68 (pH 8.0)). The eluted fractions were pooled and preserved at −80° C.
# PDH (porcine heart PDH complex, Sigma P7032) and 0.5 μg/mL hPDHK2 were mixed in an assay buffer (50 mmol/L 3-morpholinopropanesulfonic acid (pH 7.0), 20 mmol/L dipotassium hydrogen phosphate, 60 mmol/L potassium chloride, 2 mmol/L magnesium chloride, 0.4 mmol/L EDTA, 0.2% poloxamer, 2 mmol/L dithiothreitol) so that the final concentration of PDH was 0.025 U/mL, and the mixture was incubated at 4° C. overnight to obtain a PDH/hPDHK2 complex solution.
# PDH was mixed with the assay buffer so that the final concentration was 0.025 U/mL, and the mixture was incubated at 4° C. overnight to prepare a PDH solution.
# The test compounds were diluted with DMSO. To measure an inhibitory action of the test compound on the PDHK activity in the PDH/hPDHK2 complex solution, PDH/hPDHK2 complex solution (20 μL), test compound (1.5 μL) and 1.06 μmol/L ATP (diluted with assay buffer) (8.5 μL) were added to a 384 well microplate (Greiner Bio-One 781801) and PDHK reaction was performed at room temperature for 45 min (test compound well). DMSO (1.5 μL) was added to control wells instead of test compound. In addition, DMSO (1.5 μL) was added to blank wells instead of the test compound, and PDH solution was added instead of the PDH/hPDHK2 complex solution. To measure an inhibitory action of the test compound on the PDHK activity inherent in the PDH solution, a test compound was added and the PDH solution instead of the PDH/hPDHK2 complex solution was added to a blank+test compound well. […]
row,SMILES,IC50 [nM]
1,C[C@H]1Cn2c(-c3ccc(F)c(OC(C)(C)C)c3)nnc2-c2cnc([C@@](C)(O)C(F)(F)F)n21 [Example 98],12
2,C[C@H]1Cn2nc(C(F)(F)F)cc2-c2cnc([C@@](C)(O)C(F)(F)F)n21 [Example 4],14
3,C[C@H]1Cn2nc(O[C@@H]3CCOC3)cc2-c2cnc([C@@](C)(O)C(F)(F)F)n21 [Example 101],14
4,C[C@H]1Cn2nc(OCc3ccccc3)cc2-c2cnc([C@@](C)(O)C(F)(F)F)n21 [Example 27],11
5,C[C@H]1Cn2cc(C(F)(F)F)nc2-c2cnc([C@@](C)(O)C(F)(F)F)n21 [Example 19],11
6,C[C@H]1Cn2nc(OCCOC(F)(F)F)cc2-c2cnc([C@@](C)(O)C(F)(F)F)n21 [Example 61],14
7,C[C@H]1Cn2nc(OCC3(C#N)CC3)cc2-c2cnc([C@@](C)(O)C(F)(F)F)n21 [Example 51],17
8,C[C@H]1Cn2nc(C(=O)O)cc2-c2cnc([C@@](C)(O)C(F)(F)F)n21 [Example 41],21
9,"C[C@H]1Cc2cnc(C(F)(F)F)nc2-c2cnc([C@@](C)(O)C(F)(F)F)n21 (racemic) [Example 6, 1,1,1-trifluoro-2-(6-methyl-2-(trifluoromethyl)-5,6-dihydroimidazo[1′,5′:1,2]pyrido[3,4-d]pyrimidin-8-yl)propan-2-ol]",220
10,CC(=O)N1CC(COc2cc3n(n2)C[C@H](C)n2c-3cnc2[C@@](C)(O)C(F)(F)F)C1 [Example 64],19
11,C[C@H]1Cc2cc(C#N)ccc2-c2cnc([C@@](C)(O)C(F)(F)F)n21 [Example 94],8.6
12,C[C@H]1Cn2nc(OCCN3CCCS3(=O)=O)cc2-c2cnc([C@@](C)(O)C(F)(F)F)n21 [Example 76],13
13,C[C@H]1Cn2nc(Oc3cc(C(F)(F)F)ncn3)cc2-c2cnc([C@@](C)(O)C(F)(F)F)n21 [Example 70],19
14,C[C@H]1Cn2nc(OCCN3CCCC3=O)cc2-c2cnc([C@@](C)(O)C(F)(F)F)n21 [Example 63],14
15,C[C@H]1Cn2nc(C(C)(C)C)cc2-c2cnc([C@@](C)(O)C(F)(F)F)n21 [Example 15],14
16,C[C@H]1Cn2nccc2-c2cnc([C@@](C)(O)C(F)(F)F)n21 [Example 8],7.7
17,C[C@H]1Cc2c(C(C)(C)O)noc2-c2cnc([C@@](C)(O)C(F)(F)F)n21 (racemic) [Example 25],18
18,C[C@H]1Cn2c(nnc2C(O)(C(F)(F)F)C(F)(F)F)-c2cnc([C@@](C)(O)C(F)(F)F)n21 [Example 92],16
19,"C[C@H]1Cn2c(nnc2C(F)(F)F)-c2cnc([C@@](C)(O)C(F)(F)F)n21 [Example 2, (R)-1,1,1-trifluoro-2-((S)-6-methyl-3-(trifluoromethyl)-5,6-dihydroimidazo[1,5-a] [1,2,4]triazolo[3,4-c]pyrazin-8-yl)propan-2-ol]",26
20,C[C@H]1Cn2nc(OCC(O)(C(F)(F)F)C(F)(F)F)cc2-c2cnc([C@@](C)(O)C(F)(F)F)n21 [Example 85],23
21,"C[C@H]1Cn2nc(C(F)(F)F)cc2-c2nnc([C@@](C)(O)C(F)(F)F)n21 [Example 13, (R)-1,1,1-trifluoro-2-((S)-5-methyl-9-(trifluoromethyl)-5,6-dihydropyrazolo[1,5-a] [1,2,4]triazolo[3,4-c]pyrazin-3-yl)propan-2-ol]",13
22,C[C@H]1Cn2nc(C3CC3)cc2-c2cnc([C@@](C)(O)C(F)(F)F)n21 [Example 10],13
23,C[C@H]1Cn2c(nnc2C2(C(F)(F)F)CC2)-c2cnc([C@@](C)(O)C(F)(F)F)n21 [Example 40],11
24,C[C@H]1Cn2c(nnc2C(C)(F)F)-c2cnc([C@@](C)(O)C(F)(F)F)n21 [Example 90],15

row,SMILES,IC50 [nM]
1,C[C@H]1Cn2c(-c3ccc(F)cc3C(F)(F)F)nnc2-c2cnc([C@@](C)(O)C(F)(F)F)n21 [Example 56],7
2,Cc1nnc2n1C[C@H](C)n1c-2cnc1[C@@](C)(O)C(F)(F)F [Example 16],12
3,C[C@H]1Cn2c(nnc2C(F)(F)c2ccccc2Cl)-c2cnc([C@@](C)(O)C(F)(F)F)n21 [Example 73],7.4
4,C[C@H]1Cn2nc(OCCC(C)(C)O)cc2-c2cnc([C@@](C)(O)C(F)(F)F)n21 [Example 30],12
5,CC[C@H]1Cn2nc(C(F)(F)F)cc2-c2cnc([C@@](C)(O)C(F)(F)F)n21 [Example 12],> 100
6,"C[C@H]1Cc2c(C3CC3)noc2-c2cnc([C@@](C)(O)C(F)(F)F)n21 (racemic) [Example 34, 2-(3-cyclopropyl-5-methyl-4,5-dihydroimidazo[1,5-a]isoxazolo[5,4-c]pyridin-7-yl)-1,1,1-trifluoropropan-2-ol]",21
7,C[C@H]1Cn2nc(OCC3COC3)cc2-c2cnc([C@@](C)(O)C(F)(F)F)n21 [Example 78],17
8,C[C@H]1Cn2nc(OCCC3(C#N)CC3)cc2-c2cnc([C@@](C)(O)C(F)(F)F)n21 [Example 88],17
9,C[C@H]1Cn2nc(Oc3ccc(C#N)nc3)cc2-c2cnc([C@@](C)(O)C(F)(F)F)n21 [Example 95],18
10,C[C@H]1Cn2nc(OCC3CN(S(C)(=O)=O)C3)cc2-c2cnc([C@@](C)(O)C(F)(F)F)n21 [Example 65],13
11,C[C@H]1Cn2nc(OCC(=O)N3CC(F)(F)C3)cc2-c2cnc([C@@](C)(O)C(F)(F)F)n21 [Example 53],13
12,C[C@H]1Cc2c(C(F)(F)F)noc2-c2cnc([C@@](C)(O)C(F)(F)F)n21 (racemic) [Example 3],17
13,C[C@H]1Cn2c(-c3ccc(F)cc3)nnc2-c2cnc([C@@](C)(O)C(F)(F)F)n21 [Example 21],6.3
14,C[C@H]1Cn2nc(O[C@H]3CCOC3)cc2-c2cnc([C@@](C)(O)C(F)(F)F)n21 [Example 102],16
15,C[C@H]1Cn2nc(OCC(F)(F)F)cc2-c2cnc([C@@](C)(O)C(F)(F)F)n21 [Example 74],12
16,C[C@H]1Cn2nc(OCF)cc2-c2cnc([C@@](C)(O)C(F)(F)F)n21 [Example 48],14
17,C[C@H]1Cn2nc(OCC(F)F)cc2-c2cnc([C@@](C)(O)C(F)(F)F)n21 [Example 46],13
18,C[C@H]1Cn2nc(OCC(C)(C)S(C)(=O)=O)cc2-c2cnc([C@@](C)(O)C(F)(F)F)n21 [Example 84],42
19,C[C@H]1Cn2ncc(F)c2-c2cnc([C@@](C)(O)C(F)(F)F)n21 [Example 44],17
20,C[C@H]1Cn2nc(OCC3CCN(S(C)(=O)=O)CC3)cc2-c2cnc([C@@](C)(O)C(F)(F)F)n21 [Example 68],14
21,C[C@H]1Cn2nc(OCC3CN(C(=O)c4ccc(F)cc4)C3)cc2-c2cnc([C@@](C)(O)C(F)(F)F)n21 [Example 66],18
22,C[C@H]1Cn2c(nnc2C(F)(F)c2ccc(C(F)(F)F)cn2)-c2cnc([C@@](C)(O)C(F)(F)F)n21 [Example 87],8.7
23,C[C@H]1Cn2c(nnc2C(C)(C(F)(F)F)C(F)(F)F)-c2cnc([C@@](C)(O)C(F)(F)F)n21 [Example 100],9.5

# Same assay, conditions: at 0.1 μM, given when IC50 value could not be calculated; read-out: hPDHK2 inhibitory rate
row,SMILES,inhibition at 0.1 µM [%]
1,CC[C@H]1Cn2nc(C(F)(F)F)cc2-c2cnc([C@@](C)(O)C(F)(F)F)n21 [Example 12],35
